Read-outs that look alike come from different tables or passages of the source.
Tested on: test plant species
Assay: Post-emergent herbicidal activity test (greenhouse, foliar spray, visual growth reduction)
Assay type: in vivo
Conditions: post-emergence, 336 h, 140 g ai/ha
How it was run: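 Visual scoring 14 d after treatment (0 = no injury, 100 = complete control) against nontreated and solvent-blank plants gave percent growth reduction. Foliar application used a track sprayer delivering 187 L/ha to seedlings at first or second true leaf stage, grown at 23–29 °C day, ~15 h photoperiod.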

[1] = ALOMY: blackgrass (Alopecurus myosuroides), 14 days after application, read-out: Visual Growth Reduction (%) 14 Days After Application, ALOMY
[2] = AMARE: redroot pigweed (Amaranthus retroflexus), 14 days after application, read-out: Visual Growth Reduction (%) 14 Days After Application, AMARE
[3] = AVEFA: wild oat (Avena fatua), 14 days after application, read-out: Visual Growth Reduction (%) 14 Days After Application, AVEFA
[4] = CHEAL: lambsquarters (Chenopodium album), 14 days after application, read-out: Visual Growth Reduction (%) 14 Days After Application, CHEAL
[5] = CIRAR: canada thistle (Cirsium arvense), 14 days after application, read-out: Visual Growth Reduction (%) 14 Days After Application, CIRAR
[6] = CYPES: yellow nutsedge (Cyperus esculentus), 14 days after application, read-out: Visual Growth Reduction (%) 14 Days After Application, CYPES
[7] = DIGSA: crabgrass (Digitaria sanguinalis), 14 days after application, read-out: Visual Growth Reduction (%) 14 Days After Application, DIGSA
[8] = ECHCG: barnyardgrass (Echinochloa crus-galli), 14 days after application, read-out: Visual Growth Reduction (%) 14 Days After Application, ECHCG
[9] = IPOHE: ivy-leaf morning glory (Ipomoea hederacea), 14 days after application, read-out: Visual Growth Reduction (%) 14 Days After Application, IPOHE
[10] = KCHSC: kochia (Bassia scoparia), 14 days after application, read-out: Visual Growth Reduction (%) 14 Days After Application, KCHSC
[11] = ORYSA: rice (Oryza sativa), 14 days after application, read-out: Visual Growth Reduction (%) 14 Days After Application, ORYSA
[12] = SETFA: giant foxtail (Setaria faberi), 14 days after application, read-out: Visual Growth Reduction (%) 14 Days After Application, SETFA
[13] = SORVU: grain sorghum (Sorghum vulgare), 14 days after application, read-out: Visual Growth Reduction (%) 14 Days After Application, SORVU
[14] = TRZAS: wheat, spring (Triticum aestivum), 14 days after application, read-out: Visual Growth Reduction (%) 14 Days After Application, TRZAS
[15] = STEME: common chickweed (Stellaria media), 14 days after application, read-out: Visual Growth Reduction (%) 14 Days After Application, STEME
[16] = blackgrass (Alopecurus myosuroides), 14 Days After Application, read-out: Visual Growth Reduction (%) ALOMY
[17] = canada thistle (Cirsium arvense), 14 Days After Application, read-out: Visual Growth Reduction (%) CIRAR
[18] = crabgrass (Digitaria sanguinalis), 14 Days After Application, read-out: Visual Growth Reduction (%) DIGSA
[19] = lambsquarters (Chenopodium album), 14 Days After Application, read-out: Visual Growth Reduction (%) CHEAL
[20] = redroot pigweed (Amaranthus retroflexus), 14 Days After Application, read-out: Visual Growth Reduction (%) AMARE
[21] = wild oat (Avena fatua), 14 Days After Application, read-out: Visual Growth Reduction (%) AVEFA
[22] = yellow nutsedge (Cyperus esculentus), 14 Days After Application, read-out: Visual Growth Reduction (%) CYPES

SMILES | pest or weed control at 140 g/ha [1] | pest or weed control at 140 g/ha [2] | pest or weed control at 140 g/ha [3] | pest or weed control at 140 g/ha [4] | pest or weed control at 140 g/ha [5] | pest or weed control at 140 g/ha [6] | pest or weed control at 140 g/ha [7] | pest or weed control at 140 g/ha [8] | pest or weed control at 140 g/ha [9] | pest or weed control at 140 g/ha [10] | pest or weed control at 140 g/ha [11] | pest or weed control at 140 g/ha [12] | pest or weed control at 140 g/ha [13] | pest or weed control at 140 g/ha [14] | pest or weed control at 140 g/ha [15] | pest or weed control at 140 g/ha [16] | pest or weed control at 140 g/ha [17] | pest or weed control at 140 g/ha [18] | pest or weed control at 140 g/ha [19] | pest or weed control at 140 g/ha [20] | further results
COC(=O)c1nc(-c2ccc(C(C)(F)F)cc2Cl)ccc1Cl [F112, Methyl 3-chloro-6-(2-chloro-4-(1,1-difluoroethyl)phenyl) picolinate] | 60 to 74% | 95 to 100% | 95 to 100% | 95 to 100% | 95 to 100% | 45 to 59% | 85 to 94% | 75 to 84% | 95 to 100% | 95 to 100% | 0 to 29% | 60 to 74% | 95 to 100% | 60 to 74% |  |  |  |  |  |  | 
O=C(O)c1nc(-c2cc3c(cc2Cl)OC(F)(F)O3)c(F)cc1Cl [F175, 3-Chloro-6-(6-chloro-2,2-difluorobenzo[d] [1,3]dioxol-5-yl)-5-fluoropicolinic acid] | 60 to 74% | 95 to 100% | 60 to 74% | 95 to 100% | 85 to 94% | 0 to 29% | 95 to 100% | 85 to 94% | 95 to 100% | 85 to 94% | 45 to 59% | 85 to 94% | 95 to 100% | 85 to 94% | 0 to 29% |  |  |  |  |  | 
CCCCOc1c(Cl)ccc(-c2ccc(Cl)c(C(=O)OC)n2)c1F [F279, Methyl 6-(3-butoxy-4-chloro-2-fluorophenyl)-3-chloropicolinate] |  |  |  |  |  |  |  | 0 to 29% | 0 to 29% | 0 to 29% | 0 to 29% | 0 to 29% | 0 to 29% | 0 to 29% | 0 to 29% | 0 to 29% | 0 to 29% | 0 to 29% | 0 to 29% | 0 to 29% | pest or weed control at 140 g/ha [21]: 0 to 29%; pest or weed control at 140 g/ha [22]: 0 to 29%
COc1c(Cl)ccc(-c2nc(C(=O)O)c(Cl)c(Cl)c2F)c1F [F73, 3,4-Dichloro-6-(4-chloro-2-fluoro-3-methoxyphenyl)-5-fluoropicolinic acid] | 0 to 29% | 0 to 29% | 0 to 29% | 95 to 100% | 0 to 29% | 0 to 29% | 0 to 29% | 0 to 29% |  |  | 0 to 29% | 0 to 29% | 0 to 29% | 0 to 29% | 0 to 29% |  |  |  |  |  | 
O=C(O)c1nc(-c2ccc(C(F)(F)F)cc2Cl)ccc1[N+](=O)[O-] [F252, 6-(2-Chloro-4-(trifluoromethyl)phenyl)-3-nitropicolinic acid] |  |  |  |  |  |  |  | 0 to 29% | 30 to 44% | 0 to 29% | 0 to 29% | 0 to 29% | 45 to 59% | 0 to 29% | 0 to 29% | 0 to 29% | 0 to 29% | 30 to 44% | 60 to 74% | 0 to 29% | pest or weed control at 140 g/ha [21]: 0 to 29%; pest or weed control at 140 g/ha [22]: 0 to 29%
COC(=O)c1nc(-c2ccc(/C=N/N(C)C)cc2Cl)ccc1Cl [F20, methyl 3-chloro-6-(2-chloro-4-((2,2-dimethylhydrazono)methyl)phenyl) picolinate] | 0 to 29% | 0 to 29% | 0 to 29% | 0 to 29% | 0 to 29% | 0 to 29% | 0 to 29% |  |  |  |  |  |  |  |  |  |  |  |  |  | pest or weed control at 140 g/ha (barnyardgrass (Echinochloa crus-galli), 14 Days After Application, read-out: Visual Growth Reduction (%) ECHCG): 0 to 29%; pest or weed control at 140 g/ha (common chickweed (Stellaria media), 14 Days After Application, read-out: Visual Growth Reduction (%) STEME): 0 to 29%; pest or weed control at 140 g/ha (giant foxtail (Setaria faberi), 14 Days After Application, read-out: Visual Growth Reduction (%) SETFA): 0 to 29%; pest or weed control at 140 g/ha (ivy-leaf morning glory (Ipomoea hederacea), 14 Days After Application, read-out: Visual Growth Reduction (%) IPOHE): 60 to 74%; pest or weed control at 140 g/ha (johnsongrass (Sorghum vulgare), 14 Days After Application, read-out: Visual Growth Reduction (%) SORVU): 0 to 29%; pest or weed control at 140 g/ha (kochia (Bassia scoparia), 14 Days After Application, read-out: Visual Growth Reduction (%) KCHSC): 0 to 29%; pest or weed control at 140 g/ha (rice (Oryza sativa), 14 Days After Application, read-out: Visual Growth Reduction (%) ORYSA): 0 to 29%; pest or weed control at 140 g/ha (wheat, spring (Triticum aestivum), 14 Days After Application, read-out: Visual Growth Reduction (%) TRZAS): 0 to 29%
COC(=O)c1nc(-c2ccc(F)cc2Cl)ccc1Cl [F37, Methyl 3-chloro-6-(2-chloro-4-fluorophenyl) picolinate] | 0 to 29% | 85 to 94% | 0 to 29% | 60 to 74% | 0 to 29% | 0 to 29% | 0 to 29% | 0 to 29% | 75 to 84% | 0 to 29% | 0 to 29% | 0 to 29% | 75 to 84% | 0 to 29% | 0 to 29% |  |  |  |  |  | 
COC(=O)c1nc(-c2ccc(C(F)(F)F)c(Cl)c2)ccc1Cl [F304, Methyl 3-chloro-6-(3-chloro-4-(trifluoromethyl)phenyl)picolinate] |  |  |  |  |  |  |  | 0 to 29% | 95 to 100% | 0 to 29% | 0 to 29% | 0 to 29% | 0 to 29% | 0 to 29% | 0 to 29% | 0 to 29% | 0 to 29% | 30 to 44% | 0 to 29% | 0 to 29% | pest or weed control at 140 g/ha [21]: 0 to 29%; pest or weed control at 140 g/ha [22]: 0 to 29%
CCCCOC(=O)c1nc(-c2ccc(Cl)c(OC)c2F)ccc1Cl [F280, Butyl 3-chloro-6-(4-chloro-2-fluoro-3-methoxyphenyl) picolinate] |  |  |  |  |  |  |  | 0 to 29% | 30 to 44% | 60 to 74% | 0 to 29% | 0 to 29% | 0 to 29% | 0 to 29% | 0 to 29% | 0 to 29% | 30 to 44% | 0 to 29% | 85 to 94% | 30 to 44% | pest or weed control at 140 g/ha [21]: 0 to 29%; pest or weed control at 140 g/ha [22]: 60 to 74%

Source: US20230017045A1, “PYRIDINE AND PYRIMIDINE CARBOXYLATE HERBICIDES AND METHODS OF USE THEREOF” (Dow AgroSciences LLC, priority 2017, published 2023)
